# Test results as given in patent US7556939B2, “Identification and characterization of racemases, definition of protein signatures, and a test for detecting D-amino acid and for screening molecules capable of inhibiting the activity of racemase, especially proline racemase” (Institut Pasteur, priority 2003, dated 2009).
# Tests used:
# [1] = biological target: T1, D-AAO (Sus scrofa, UniProt P00371); assay: D-AAO/HRP reaction on D-proline in presence of PAC or L-proline; type: biochemical, swine; conditions: equimolar mixture of D- and L-Proline versus D-Proline alone
# T1 construct: purchased Sigma A-5222; host or cells: swine kidney
# [2] = tested on: TcPRAC enzyme isoforms; conditions: span over the enzyme isoforms
# Procedure: Optical rotation was measured every 5 sec during 10 min and every 5 min to 1 hour. […] Calculations were done using the Kaleïdagraph program. […] Graphic representation and linear curve regression allowed the determination of Ki as [PAC]/[(slope with PAC/slope without PAC)−1]. All reagents were purchased from Sigma.
# [3] = biological target: T2, CsPR (Acetoanaerobium sticklandii, UniProt E3PTZ4); conditions: reported for the proline racemase of C. sticklandii; cited from earlier work
# T2 sequence (E3PTZ4 1-335): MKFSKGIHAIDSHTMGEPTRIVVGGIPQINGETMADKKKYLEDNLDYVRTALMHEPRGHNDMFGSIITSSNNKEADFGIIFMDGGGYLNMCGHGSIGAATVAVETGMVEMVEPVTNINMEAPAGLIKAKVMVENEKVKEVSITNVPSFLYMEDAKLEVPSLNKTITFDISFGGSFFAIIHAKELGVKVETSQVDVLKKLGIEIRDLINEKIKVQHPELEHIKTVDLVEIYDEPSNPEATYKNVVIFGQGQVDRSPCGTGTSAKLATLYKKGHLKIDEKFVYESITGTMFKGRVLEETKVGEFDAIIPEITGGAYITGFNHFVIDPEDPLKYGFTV
# T1 sequence (P00371 whole entry): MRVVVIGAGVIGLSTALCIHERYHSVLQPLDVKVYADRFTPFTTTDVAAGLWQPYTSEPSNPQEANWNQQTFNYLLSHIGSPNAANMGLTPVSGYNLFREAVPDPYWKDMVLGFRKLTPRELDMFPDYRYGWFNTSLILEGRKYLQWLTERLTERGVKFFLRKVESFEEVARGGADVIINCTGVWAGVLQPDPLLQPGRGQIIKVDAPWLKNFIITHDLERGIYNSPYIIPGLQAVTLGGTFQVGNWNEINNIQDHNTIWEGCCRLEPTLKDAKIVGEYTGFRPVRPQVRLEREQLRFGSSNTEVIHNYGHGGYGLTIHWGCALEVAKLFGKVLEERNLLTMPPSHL
compound,measurement,setting,value
O=C(O)[C@@H]1CCCN1 [L-proline],effect on D-amino-oxidase activity,[1],Inhibits
same,Km,[2],29 to 75 mM
same,Km,[3],2.3 mM
